Data set [1] is filed under the species Rattus norvegicus. Kind of data set: Compound was tested for percentage inhibition of isometric force in response to a test compound in isolated rat bladder strips pre-contracted with carbachol at a concentration of 3 uM. Format: functional.
Data set [2] addresses Calcium-activated potassium channel subunit alpha-1 KCNMA1 (Mus musculus) (UniProt Q08460). Briefly: Compound was tested for its effect on maxi-K-mediated outward current in Xenopus laevis oocytes expressing the cloned maxi-K channel mslo at a concentration of 20 uM. Particulars: oocyte.
For data set [3], the species on record is Rattus norvegicus. Briefly: Compound was tested for percentage inhibition of isometric force in response to a test compound in isolated rat bladder strips pre-contracted with carbachol at a concentration of 20 uM. Format: functional.
The target of data set [4] is Calcium-activated potassium channel subunit alpha-1 KCNMA1 (Mus musculus) (UniProt Q08460). Kind of data set: Compound was tested for its effect on maxi-K-mediated outward current in Xenopus laevis oocytes expressing the cloned maxi-K channel mslo at a concentration of 10 uM. As to conditions: oocyte.
Data set [5] has as its target Calcium-activated potassium channel subunit alpha-1 KCNMA1 (Homo sapiens) (UniProt Q12791). Kind of data set: Compound was tested for its effect on maxi-K-mediated outward current in Xenopus laevis oocytes expressing the cloned maxi-K channel hslo at a concentration of 1 uM. Particulars: oocyte.

The values below come from ChEMBL document CHEMBL1136065, “The synthesis and structure-activity relationships of 1,3-diaryl 1,2,4-(4H)-triazol-5-ones: a new class of calcium-dependent, large conductance, potassium (maxi-K) channel opener targeted for urge urinary incontinence” (Bioorg Med Chem Lett, 2002).

Chain of Calcium-activated potassium channel subunit alpha-1 KCNMA1 (Mus musculus) (Q08460 whole entry, looked up): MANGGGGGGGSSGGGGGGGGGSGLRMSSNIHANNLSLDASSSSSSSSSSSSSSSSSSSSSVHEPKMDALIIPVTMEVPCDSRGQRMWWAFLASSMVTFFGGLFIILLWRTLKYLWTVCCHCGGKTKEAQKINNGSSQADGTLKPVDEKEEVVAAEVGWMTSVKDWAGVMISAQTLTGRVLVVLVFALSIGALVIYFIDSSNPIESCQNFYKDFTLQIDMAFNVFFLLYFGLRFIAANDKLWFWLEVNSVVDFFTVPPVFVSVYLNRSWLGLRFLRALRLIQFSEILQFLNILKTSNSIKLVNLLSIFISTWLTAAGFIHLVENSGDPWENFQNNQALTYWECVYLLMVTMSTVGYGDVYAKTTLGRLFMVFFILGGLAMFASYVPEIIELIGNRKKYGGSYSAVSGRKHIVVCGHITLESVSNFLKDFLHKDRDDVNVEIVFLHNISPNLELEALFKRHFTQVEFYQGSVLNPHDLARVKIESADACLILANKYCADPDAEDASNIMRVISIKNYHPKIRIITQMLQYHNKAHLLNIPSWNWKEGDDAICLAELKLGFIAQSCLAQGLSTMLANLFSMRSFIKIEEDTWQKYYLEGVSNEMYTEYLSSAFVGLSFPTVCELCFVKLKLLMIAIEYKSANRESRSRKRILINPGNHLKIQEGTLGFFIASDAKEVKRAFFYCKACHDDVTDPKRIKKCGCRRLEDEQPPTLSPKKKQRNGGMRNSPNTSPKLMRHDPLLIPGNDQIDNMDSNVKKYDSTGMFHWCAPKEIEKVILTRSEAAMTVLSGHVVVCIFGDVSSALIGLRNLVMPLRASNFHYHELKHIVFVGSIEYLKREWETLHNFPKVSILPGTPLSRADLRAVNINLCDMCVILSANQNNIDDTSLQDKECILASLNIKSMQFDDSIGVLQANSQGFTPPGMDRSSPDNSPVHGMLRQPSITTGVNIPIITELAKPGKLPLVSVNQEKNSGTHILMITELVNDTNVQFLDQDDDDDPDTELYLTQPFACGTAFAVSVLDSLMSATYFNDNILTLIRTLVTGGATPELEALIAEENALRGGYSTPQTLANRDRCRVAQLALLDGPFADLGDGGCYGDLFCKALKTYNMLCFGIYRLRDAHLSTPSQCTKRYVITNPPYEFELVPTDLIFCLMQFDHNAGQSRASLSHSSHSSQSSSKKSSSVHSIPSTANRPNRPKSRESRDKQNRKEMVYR
Chain of Calcium-activated potassium channel subunit alpha-1 KCNMA1 (Homo sapiens) (Q12791 whole entry, looked up): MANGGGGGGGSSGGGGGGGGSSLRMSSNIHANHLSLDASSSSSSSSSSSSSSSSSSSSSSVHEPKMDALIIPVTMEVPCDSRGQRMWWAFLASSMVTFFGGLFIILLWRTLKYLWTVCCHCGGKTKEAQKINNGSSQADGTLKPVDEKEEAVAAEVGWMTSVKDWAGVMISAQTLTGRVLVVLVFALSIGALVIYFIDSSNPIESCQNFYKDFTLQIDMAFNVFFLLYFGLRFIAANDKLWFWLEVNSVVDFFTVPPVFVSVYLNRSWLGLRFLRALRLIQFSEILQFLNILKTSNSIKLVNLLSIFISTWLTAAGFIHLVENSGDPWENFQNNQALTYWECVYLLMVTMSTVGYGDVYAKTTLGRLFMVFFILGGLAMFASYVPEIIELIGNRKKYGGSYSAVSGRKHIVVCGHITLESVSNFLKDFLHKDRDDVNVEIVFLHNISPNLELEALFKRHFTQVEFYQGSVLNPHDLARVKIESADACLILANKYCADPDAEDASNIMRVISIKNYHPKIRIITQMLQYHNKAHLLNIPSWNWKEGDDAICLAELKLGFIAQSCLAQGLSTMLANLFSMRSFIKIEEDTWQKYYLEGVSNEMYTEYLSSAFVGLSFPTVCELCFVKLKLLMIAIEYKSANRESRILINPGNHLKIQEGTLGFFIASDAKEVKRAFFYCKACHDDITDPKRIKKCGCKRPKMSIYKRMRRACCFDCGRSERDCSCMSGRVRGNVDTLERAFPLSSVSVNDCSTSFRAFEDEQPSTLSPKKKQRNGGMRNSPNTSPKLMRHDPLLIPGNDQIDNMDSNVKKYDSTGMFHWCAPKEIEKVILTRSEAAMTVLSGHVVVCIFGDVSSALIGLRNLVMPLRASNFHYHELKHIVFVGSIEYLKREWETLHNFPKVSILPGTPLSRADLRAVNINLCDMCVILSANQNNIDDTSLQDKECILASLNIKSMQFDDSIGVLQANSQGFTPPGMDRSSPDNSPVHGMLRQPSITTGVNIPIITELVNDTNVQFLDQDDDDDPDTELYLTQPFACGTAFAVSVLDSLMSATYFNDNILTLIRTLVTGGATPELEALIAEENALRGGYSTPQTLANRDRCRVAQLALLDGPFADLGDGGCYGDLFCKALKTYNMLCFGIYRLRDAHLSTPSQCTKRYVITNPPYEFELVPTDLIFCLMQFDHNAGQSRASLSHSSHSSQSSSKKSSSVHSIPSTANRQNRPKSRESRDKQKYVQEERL

Regarding `Oc1ccc(Cl)cc1-n1nc(-c2cc(C(F)(F)F)cc(C(F)(F)F)c2)nc1O`, the inhibition (as a rule, the change of the read-out against control, counted positive when it falls) at 3 µM in the data set listed under Rattus norvegicus [1] is 15%. Also, the Increase in data set [2] was found to be 154.2%.

In the data set listed under Rattus norvegicus [1], `Oc1ccc(Cl)cc1-n1nc(-c2ccccc2C(F)(F)F)nc1O` gave an inhibition at 3 µM of 34%. In the data set filed under Rattus norvegicus [3], this molecule returned an inhibition at 20 µM of 90%. The Increase in data set [2] is listed as 117.1%.

As for `O=c1[nH]c(-c2ccc(C(F)(F)F)cc2)nn1-c1cc(Cl)ccc1O`, in the data set listed under Rattus norvegicus [1], the inhibition at 3 µM was 22%. In the data set listed under Rattus norvegicus [3], this molecule had an inhibition at 20 µM of 87%. Besides, in data set [2], the Increase was 196.8%.

`Oc1ccc(Cl)cc1-n1nc(-c2ccc(C(F)(F)F)cc2C(F)(F)F)nc1O` displayed an inhibition at 3 µM in the data set listed under Rattus norvegicus [1] of 46%. Also, the inhibition at 20 µM in the data set listed under Rattus norvegicus [3] was 94%. In addition, the Increase in data set [2] is on record as 175.5%.

Turning to `O=c1[nH]c2cc(C(F)(F)F)ccc2n1-c1cc(Cl)ccc1O`, the inhibition at 20 µM in the data set listed under Rattus norvegicus [3] amounted to 8%. Further, in data set [2], the Increase is recorded as 131.8%.

With `Oc1ccc(Cl)cc1-n1nc(-c2ccc(C(F)(F)F)c(Cl)c2)nc1O`, in the data set filed under Rattus norvegicus [1], testing at 3 µM gave an inhibition of 5%. The Increase in data set [2] is reported as 198.5%.

Regarding `Oc1ccc(Cl)cc1-n1nc(-c2cccc(C(F)(F)F)c2)nc1O`, the Increase in data set [4] is recorded as 161.5%. In the data set listed under Rattus norvegicus [1], this molecule returned an inhibition at 3 µM of 42%.

Turning to `Oc1ccc(Cl)cc1-n1nc(-c2ccccc2)nc1O`, in the data set filed under Rattus norvegicus [1], the inhibition at 3 µM is 35%. Further, the Increase in data set [5] was determined as 91.4%. Besides, the inhibition at 20 µM in the data set filed under Rattus norvegicus [3] worked out at 89.4%.
